Assay results from BigSolDB 2.1.

O=C1OC(=O)[C@H]2[C@@H]1[C@@H]1C=C[C@H]2C1
solubility (mole fraction)
Details | 278.15 K | 283.15 K | 288.15 K | 293.15 K | 298.15 K | 303.15 K | 308.15 K | 313.15 K | 318.15 K | 323.15 K
in 1,4-dioxane | – | – | 0.0718 | 0.0836 | 0.0939 | 0.107 | 0.123 | 0.136 | 0.154 | 0.173
in DMF | 0.0809 | 0.0925 | 0.106 | 0.12 | 0.135 | 0.152 | 0.171 | 0.186 | 0.208 | 0.23
in NMP | 0.112 | 0.126 | 0.14 | 0.156 | 0.172 | 0.19 | 0.209 | 0.225 | 0.245 | 0.265
in acetone | 0.0395 | 0.0475 | 0.0559 | 0.0658 | 0.0776 | 0.0897 | 0.106 | 0.121 | 0.138 | 0.155
in ethanol | 0.00216 | 0.00264 | 0.00354 | 0.00441 | 0.0056 | 0.00699 | 0.00872 | 0.0109 | 0.0135 | 0.0168
in ethyl acetate | 0.0293 | 0.0338 | 0.0413 | 0.0484 | 0.0535 | 0.0632 | 0.0737 | 0.0838 | 0.0969 | 0.11
in isobutyl acetate | 0.0199 | 0.0236 | 0.0284 | 0.0341 | 0.0396 | 0.0468 | 0.0552 | 0.0636 | 0.0741 | 0.0848
in isopropyl acetate | 0.021 | 0.0258 | 0.03 | 0.0357 | 0.0417 | 0.0489 | 0.0569 | 0.0661 | 0.0768 | 0.0878
in methanol | 0.00403 | 0.00504 | 0.00635 | 0.00781 | 0.0101 | 0.0126 | 0.0157 | 0.0201 | 0.0246 | 0.0311
in methyl acetate | 0.0358 | 0.0425 | 0.0485 | 0.0562 | 0.0644 | 0.0754 | 0.0851 | 0.0973 | 0.11 | 0.125
in n-butyl acetate | 0.0216 | 0.0259 | 0.031 | 0.0367 | 0.0428 | 0.0505 | 0.0587 | 0.0683 | 0.0788 | 0.0908
in n-pentyl acetate | 0.0192 | 0.0231 | 0.0276 | 0.0327 | 0.0388 | 0.0455 | 0.0535 | 0.0626 | 0.0726 | 0.0837
in n-propyl acetate | 0.0249 | 0.0303 | 0.0357 | 0.0414 | 0.0486 | 0.0565 | 0.0661 | 0.0761 | 0.0878 | 0.101
